Assay results from patent publication US7041647B2, “Synthetic peptide having an ionophoric and antimicrobial activity” (Corporacion Para Investigaciones Biologicas, priority 2003, dated 2006).
No end group written: not given here.

How the values were obtained:
[1] = tested on: inner membrane of rat liver mitochondria; test: Mitochondrial swelling in isotonic media (ionophoric activity); type: biochemical; conditions: pH 7.4
Method: FIG. 1 Ionophoric activity of P1 in the inner membrane of rat liver mitochondria. The mitochondria at a concentration of 0.5 mg/ml of protein were incubated in the media 125 mM KNO3, 5 mM HEPES-tris, pH 7.4 (Panel A) and 125 mM NH4NO3, 5 mM HEPES-tris, pH 7.4 (Panel B), both media were supplemented with 2.5 μM rotenone and 1 μM oligomycin (RO), added just after the mitochondria. The peptide P1 was added at the following final concentrations: 1.8 μM of P1 (curves a); 0.36 μM of P1 (curves b); 0.18 μM of P1 (curves c); 0.18 μM of P1 plus 2.5 mM of succinate (curves d); 0.12 μM of valinomycin (curve e), and 2 μM of FCCP, (curve f). In Panel C, the permeability of the inner mitochondrial membrane induced by the peptide P1 was evaluated for the following cations: H^+, K^+, Na^+, and Tris^+. […]
The mitochondria were isolated and prepared as described above. […] The mitochondrial swelling was spectrophotometrically monitored at 540 nm (Turner Spectrophotometer, model SP-850, USA, modified with a magnetic mini-stirrer). The curves were recorded in a graphical recorder (Linseis model L250E, USA), scanned and then processed in the program Adobe Photoshop V5.0. […]

human red blood cells = test: Hemolytic activity in human erythrocytes; type: cell-based; conditions: for Percentage of hemolysis, X ± SD: hematocryte 0.5%, 1 h room temperature
Method: FIG. 5 Effect of P1 in human red blood cells; Human red blood cells were resuspended to a hematocryte of 0.5% in the isotonic solutions indicated in materials and methods. The peptide P1 was added at different concentrations to the cellular suspensions and incubated for 1 hour at room temperature. The supernatants were obtained by centrifugation of the suspensions at 10000 rpm for 5 min at 4° C. (International Equipment Company IEC, Centra MP4R; rotor 851), the absorbance of the supernatants was registered at 415 nm with a spectrophotometer (BIORAD). The results were expressed as percentage of hemolysis relative to the maximum hemolysis (erythrocytes hemolysed in 0.01% Tween-20).
FIG. 6 The hemolysis caused by P1 in the erythrocytes decreases with an increase in the hematocryte; human red blood cells were resuspended at different hematocrytes: 0.5%, 2.5% and 10% in 150 mM NaCl, 5 mM KCl, 5 mM Glucose, 10 mM HEPES-tris, pH 7.4. Peptide P1 was added at different concentrations in the cellular suspension and incubated during 1 h at room temperature. The supernatants were obtained by centrifugation at 10000 rpm for 5 min at 4° C. and the absorbance at 415 nm was determined with a BIORAD spectrophotometer. The results were expressed as percentage of hemolysis relative to the maximum hemolysis (erythrocytes lysed in 0.01% Tween-20).
The hemolytic activity of peptide P1 was determined in heparinized human red blood cells from a volunteer (final concentration of heparin 20.4 U/ml), and washed three times in 150 mM NaCl, 9 mM Na2PO4, pH 7.3, at room temperature. The red blood cells were resuspended to an hematocryte of 0.5% in isotonic solutions 150 mM NaCl, 5 mM KCl, 5 mM Glucose, 10 mM HEPES-tris, pH 7.4; 155 mM KCl, 5 mM Glucose, 10 mM HEPES-tris, pH 7.4; 300 mM saccharose, 5 mM KCl, 5 mM Glucose, 10 mM HEPES-tris, pH 7.4; 150 mM polyethyleneglycol-1500 (PEG-1500), 5 mM KCl, 5 mM Glucose, 10 mM HEPES-tris, pH 7.4. […] The supernatants were recovered by centrifugation of the cellular suspension at 10000 rpm for 5 min at 4° C. and the absorbance at 415 nm was determined in a BIORAD spectrophotometer. The averages and standard deviations were calculated and the data were introduced to the program SigmaPlot V4.0 in order to generate the corresponding graphs (FIGS. 3 and 4).

[2] = Solubility in aqueous solutions; type: physicochemical
Description: The peptides were synthesized by the method of solid phase synthesis (Merrifield B. 1963. Solid Phase Peptide Synthesis, Journal American Chemical Society. 85: 2149–2154; and Houghten R. A. 1985. General methods for the rapid solid phase synthesis of large numbers of peptides: specificity of antigen antibody interaction at the level of individual amino acids. Proc. Natl. Acad. Sci. USA. 82: 5131–5135.) under the methods of good manufacture practices (GMP). A resin p-methyl benzidrylamine (MBHA) (0.7 meq/g), t-boc amino acids (Bachem, USA) and the process of high-low cleavage were used in the synthesis. (Andreu D, Merrifield RB, Steiner H, Boman HG. 1983. Solid-phase synthesis of Cecropin A and Related Peptides. Proc. Natl. Acad. Sci USA 80: 6475–6479.). Once synthesized, the peptides were extracted with 10% acetic acid in water. The peptides were purified by high pressure liquid chromatography (HPLC), in a reverse phase column, and they were analyzed by means of mass spectrometry (Maldi-Tof). The peptides were lyophilized and kept in powder at 4° C. until its use.

[3] = tested on: Escherichia coli (ATCC 25922); conditions: ATCC 25922, 2 h, 7.1 μM
[4] = tested on: Staphylococcus aureus (ATCC 25923); conditions: ATCC 25923, 2 h, 7.1 μM
[5] = tested on: Streptococcus pneumoniae (ATCC 49619); conditions: ATCC 49619, 2 h, 7.1 μM
[6] = tested on: Bacteroides fragilis (ATCC 25285); conditions: ATCC 25285, 2 h, 7.1 μM
[7] = tested on: Clostridium perfringens (ATCC 13124); conditions: ATCC 13124, 2 h, 7.1 μM

Compound: CC(C)[C@@H]1NC(=O)[C@H](C)OC(=O)[C@@H](C(C)C)NC(=O)[C@@H](C(C)C)OC(=O)[C@H](C(C)C)NC(=O)[C@H](C)OC(=O)[C@@H](C(C)C)NC(=O)[C@@H](C(C)C)OC(=O)[C@H](C(C)C)NC(=O)[C@H](C)OC(=O)[C@@H](C(C)C)NC(=O)[C@@H](C(C)C)OC1=O [valinomycin]
- Rate of mitochondrial swelling (slope) ([1]; 0.12 μM valinomycin, medium 125 mM KNO3, 5 mM HEPES-tris, FIG. 1 Panel A curve e): 1.4

Compound: N#CC(C#N)=NNc1ccc(OC(F)(F)F)cc1 [FCCP, carbonyl-cyanide-p-trifluoromethoxy phenylhydrazone]
- Speed of mitochondrial swelling (slope) ([1]; 2 μM FCCP, medium 125 mM NH4NO3, 5 mM HEPES-tris, FIG. 1 Panel B curve f): 3.5

Compound: VAPIAKYLATALAKWALKQGFAKLKS-NH2 (C-terminus assumed) [P1]
- Percentage of hemolysis, X ± SD (human red blood cells; 0.36 μM P1, isotonic medium KCl 150 mM): 17.25 ± 1.05%
- Percentage of hemolysis, X ± SD (human red blood cells; 0.36 μM P1, isotonic medium NaCl 150 mM): 3.75 ± 0.05%
- Percentage of hemolysis, X ± SD (human red blood cells; 0.36 μM P1, isotonic medium PEG-1500 150 mM): 0.25 ± 0.07%
- Percentage of hemolysis, X ± SD (human red blood cells; 0.36 μM P1, isotonic medium Saccharose 150 mM): 57.5 ± 0.73%
- Permeability order of hemolytic activity by isotonic medium (human red blood cells; 0.36 μM peptide, order disappears at 3.6 μM): saccharose>KCl>NaCl
- Percentage of hemolysis, X ± SD (human red blood cells; 3.6 μM P1, isotonic medium KCl 150 mM): 64.25 ± 1.23%
- Percentage of hemolysis, X ± SD (human red blood cells; 3.6 μM P1, isotonic medium NaCl 150 mM): 59.25 ± 1.15%
- Percentage of hemolysis, X ± SD (human red blood cells; 3.6 μM P1, isotonic medium PEG-1500 150 mM): 2.75 ± 0.3%
- Percentage of hemolysis, X ± SD (human red blood cells; 3.6 μM P1, isotonic medium Saccharose 150 mM): 75.5 ± 10.38%
- Hemolytic activity with increased hematocryte (human red blood cells; hematocryte increased at 10%, NaCl medium): decreases dramatically
- Hemolytic activity in a physiological solution (human red blood cells; hematocryte is high): insignificant
- Hemolytic activity (in words) (human red blood cells; isotonic medium PEG-1500): does not show hemolytic activity
- Solubility in aqueous solutions [2]: highly soluble
- % of growth inhibition [3]: 100%
- % of growth inhibition [4]: 100%
- % of growth inhibition [5]: 100%
- % of growth inhibition [6]: 100%
- % of growth inhibition [7]: 100%
